Experimental data from the CheMixHub viscosity set.

Assay: xn = mol fraction of the nth substance listed

CCCC[N+](CCCC)(CCCC)CCCC.[Br-] + CC(O)CO
101 kPa, x1 = 0.2
Conditions | viscosity [mPa·s]
298.15 K | 96.3
303.15 K | 71.6
308.15 K | 54.5
313.15 K | 42.1
318.15 K | 33.2
323.15 K | 26.6

CCCCCCCCCCCCCC(=O)OCC + CCC1CCCCC1
viscosity [mPa·s], 100 kPa
Conditions | x2 = 0.0998 | x2 = 0.2 | x2 = 0.3001 | x2 = 0.4002 | x2 = 0.5 | x2 = 0.6 | x2 = 0.6999 | x2 = 0.8 | x2 = 0.9
293.15 K | 4.251 | 3.768 | 3.305 | 2.865 | 2.44 | 2.053 | 1.709 | 1.387 | 1.105
298.15 K | 3.763 | 3.351 | 2.962 | 2.582 | 2.221 | 1.88 | 1.572 | 1.286 | 1.034
303.15 K | 3.361 | 3.011 | 2.672 | 2.34 | 2.022 | 1.726 | 1.45 | 1.199 | 0.972
308.15 K | 3.01 | 2.709 | 2.411 | 2.12 | 1.845 | 1.579 | 1.335 | 1.11 | 0.904
313.15 K | 2.694 | 2.432 | 2.18 | 1.925 | 1.685 | 1.454 | 1.234 | 1.031 | 0.839
318.15 K | 2.461 | 2.227 | 2 | 1.775 | 1.558 | 1.353 | 1.152 | 0.964 | 0.791
323.15 K | 2.242 | 2.032 | 1.829 | 1.628 | 1.436 | 1.251 | 1.071 | 0.9 | 0.736

C=C1CCC2CC1C2(C)C (stereo unspecified) + CCCCCC
298.15 K, 101.33 kPa
Conditions | viscosity [mPa·s]
x2 = 0.0421 | 1.455
x2 = 0.0626 | 1.392
x2 = 0.2031 | 1.055
x2 = 0.2799 | 0.914
x2 = 0.3765 | 0.772
x2 = 0.4939 | 0.634
x2 = 0.5597 | 0.57
x2 = 0.6601 | 0.488
x2 = 0.7454 | 0.427
x2 = 0.8217 | 0.381
x2 = 0.8935 | 0.344
x2 = 0.9595 | 0.312

CCCCCCCCCCCCOC(C)=O + CCCCCC
303.15 K, 101.3 kPa
Conditions | viscosity [mPa·s]
x1 = 0.1919 | 0.5038
x1 = 0.3182 | 0.7197
x1 = 0.4783 | 1.079
x1 = 0.522 | 1.2
x1 = 0.748 | 1.958

Cc1cccc(N)c1 + CCCCCC
viscosity [mPa·s], 101.33 kPa
Conditions | x1 = 0.236 | x1 = 0.396 | x1 = 0.579 | x1 = 0.787
295.15 K | 0.46 | 0.69 | 0.95 | 1.54
305.15 K | 0.39 | 0.55 | 0.77 | 1.25

CCCCCCCCCCCC(=O)O + CCCCCCCCCC(=O)O
100 kPa, x1 = 0.33
Conditions | viscosity [mPa·s]
293.15 K | 12.89
298.15 K | 10.76
303.15 K | 9.199
308.15 K | 7.939
313.15 K | 6.909
318.15 K | 6.059
323.15 K | 5.349
